Here are results for 2 compounds from patent publication US20250000879A1, “PHARMACEUTICAL COMPOSITION FOR PREVENTING DIABETES AND USE THEREOF” (HANYI BIO-TECHNOLOGY (BEIJING) CO., LTD., priority 2018, published 2025).

Data set [1] relates to mouse model of type 1 diabetes. Kind of data set: Fasting blood glucose in STZ-induced mouse model of type 1 diabetes. To be noted: FIG. 1A; for fasting blood glucose: after 10 days. In kind it is in vivo, mice. The procedure: C57 male mice aged 4-6 weeks were used as experimental animals. After the mice were fasted for 10-12 hours, they were injected with 50 mg/kg of streptozotocin (STZ) intraperitoneally for 5 consecutive days. Fasting blood glucose levels of mice on the 6th and 10th days were measured to determine whether the induction was successful (the induction was considered successful when fasting blood glucose was greater than 11.1 mmol/L). The mice were applied to Group 2 to 6 in the following step 2).
The mice were randomly divided into 6 groups with 10 mice in each group: • Group 1: blank control group, fed with normal feed and intraperitoneally injected with a buffer solution at a dose of 100 μl/mouse, once a day for 5 consecutive days; • wherein, the buffer solution was a citric acid buffer solution with a concentration of 0.1 mol/L and pH of 4.2 and was sterilized by suction filtration. • Group 2: diabetes model group, fed with normal feed and intraperitoneally injected with streptozotocin; • Group 3: CBD prevention group, fed with normal feed, intraperitoneally injected with streptozotocin, and given CBD by gavage from the first day of induction, 50 mg/kg, once a day; • Group 4: CBD treatment group, fed with normal feed, intraperitoneally injected with streptozotocin, and given CBD by gavage after successful induction, 50 mg/kg, once a day; • Group 5: positive drug control group, fed with normal feed, intraperitoneally injected with streptozotocin, and injected with insulin after successful induction, 0.2 U/kg, once a day; and • Group 6: metformin group, fed with normal feed, intraperitoneally injected with streptozotocin, and given metformin by gavage after successful induction, 50 mg/kg, once a day.
(§1) Fasting blood glucose of mice in each group was detected every other three to four weeks; after one month of administration (the model was stable), a glucose tolerance test (GTT) was carried out. […] The blood glucose of the mice before injection (0 min) and at 15 min, 30 min, 60 min and 120 min after injection were measured respectively.

The subject of data set [2] is mouse model of type 1 diabetes. Briefly: Glucose tolerance test (GTT) in STZ-induced mouse model of type 1 diabetes. To be noted: FIG. 1B. The class given is in vivo, mice. The procedure: (§2) C57 male mice aged 4-6 weeks were used as experimental animals. After the mice were fasted for 10-12 hours, they were injected with 50 mg/kg of streptozotocin (STZ) intraperitoneally for 5 consecutive days. Fasting blood glucose levels of mice on the 6th and 10th days were measured to determine whether the induction was successful (the induction was considered successful when fasting blood glucose was greater than 11.1 mmol/L). The mice were applied to Group 2 to 6 in the following step 2). […]
as §1

The test system of data set [3] is mouse model of type 1 diabetes. Briefly: Insulin tolerance test (ITT) in STZ-induced mouse model of type 1 diabetes. In kind it is in vivo, mice. To be noted: FIG. 1C. The procedure: as §2
One week after GTT, an insulin tolerance test (ITT) was carried out. […] The blood glucose of the mice before injection (0 min) and at 15 min, 30 min, 60 min and 120 min after injection were measured respectively.

For data set [4], the system named is mouse model of type 2 diabetes. Kind of data set: Fasting blood glucose in STZ and high-fat feed mouse model of type 2 diabetes. In kind it is in vivo, mice. The procedure:
(§3) C57 male mice aged 4-6 weeks were used as experimental animals. The mice were fed with high-fat feed. After the mice were fasted for 10-12 hours, they were injected with 50 mg/kg of streptozotocin (STZ) intraperitoneally for 5 consecutive days. […] The mice were applied to Group 2 to 8 in the following step 2).
(§4) High-fat feed was formed by adding 60% fat to normal feed.

The test system of data set [5] is mouse model of type 2 diabetes. Briefly: Glucose tolerance test (GTT) in STZ and high-fat feed mouse model of type 2 diabetes. In kind it is in vivo, mice. To be noted: CBD 50 mg/kg by gavage once a day; one month after administration; FIG. 2B. The procedure:
C57 male mice aged 4-6 weeks were used as experimental animals. The mice were fed with high-fat feed. After the mice were fasted for 10-12 hours, they were injected with 50 mg/kg of streptozotocin (STZ) intraperitoneally for 5 consecutive days. […] The mice were applied to Group 2 to 8 in the following step 2). High-fat feed was formed by adding 60% fat to normal feed. […] One month after administration (after the type 2 diabetes model was stabilized,), a glucose tolerance test (GTT) was carried out. The mice were fasted for 10 hours, and injected with 20% (w/w) glucose was intraperitoneally according to their body weights (10 μl/g).

For data set [6], the system named is mouse model of type 2 diabetes. Kind of data set: Insulin tolerance test (ITT) in STZ and high-fat feed mouse model of type 2 diabetes. To be noted: CBD 50 mg/kg by gavage once a day; one month after administration; FIG. 2C. In kind it is in vivo, mice. The procedure: as §3, §4
The subject of data set [7] is DB/DB mice (spontaneous type 2 diabetic mice). Briefly: Blood glucose of DB/DB mice after administration treatment. In kind it is in vivo. To be noted: CBD alone 50 mg/kg, intragastric, once a day. The procedure: In order to study the effect of combined use of CBD and metformin, adult DB/DB mice (spontaneous type 2 diabetic mice, purchased from Model Animal Center of Nanjing University) were randomly divided into 5 groups, with 6 mice in each group: • Group 1: control group, no treatment; • Group 2: CBD alone administration group (50 mg/kg); • Group 3: low-dose metformin group (100 mg/kg, calculated by referring to the lowest dose for human, and the dose for mice=9.1×the dose for human); • Group 4: low-dose metformin (100 mg/kg)+CBD (50 mg/kg) group; and • Group 5: high-dose metformin group (250 mg/kg, calculated by referring to the lowest dose for human, and the dose for mice=9.1×the dose for human).
Group 3 and Group 5 were both positive control groups of the treatment group, Group 3 was low-dose metformin group, and Group 5 was high-dose metformin group.
The administration routes of the above five groups were all intragastric administration, once a day
After 4 weeks of administration, blood glucose of mice in each group was measured.

The next data set concerns mouse diarrhea model. Kind of data set: Diarrhea index in mouse diarrhea model induced by Folium Sennae. In kind it is in vivo, mice. To be noted: days 1-7, FIG. 4A to 4G. The procedure:
ICR female mice of 4-6 weeks old were used as experimental animals. The mice ate and drank normally, and were given 8% (w/w) Folium Sennae solution by gavage, 0.2 ml/mouse. Diarrhea index of the mice was counted every other one and a half hours for 6 hours. Folium Sennae was purchased from Tongrentang Pharmacy in Beijing. The 8% (w/w) Folium Sennae solution was prepared by boiling 8 parts by weight of Folium Sennae and 92 parts by weight of water in a conical flask for 10 min.
The mice were randomly divided into 7 groups with 10 mice in each group: • Group 1: the mice were given the same volume of water by gavage every day; • Group 2: the mice were given 150 mg/kg of metformin by gavage every day; • Group 3: the mice were given 50 mg/kg of CBD by gavage every day; • Group 4: the mice were given 8% Folium Sennae solution by gavage every day; • Group 5: the mice were given a mixed solution of 8% Folium Sennae solution and 150 mg/kg of metformin by gavage every day; • Group 6: the mice were given a mixed solution of 8% Folium Sennae solution and 50 mg/kg of CBD by gavage every day; and • Group 7: the mice were given a mixed solution of 8% Folium Sennae solution, 150 mg/kg of metformin and 50 mg/kg of CBD by gavage every day.
Every day after gavage, the diarrhea index of each mouse was counted every other one and a half hours, 4 times in total […].
Diarrhea index=loose stool rate*loose stool grade
• Diarrhea rate: the number of animals with loose stools in this group/the total number of animals in this group*100%; • Loose stool rate: the number of loose stools per animal/the total number of stools; and • Loose stool grade: the hardness of loose stool graded according to the size of stains on filter paper with loose stool, as shown in Table 1 below.

For data set [8], the system named is mouse lactic acidosis model. Briefly: Blood lactic acid concentration in mouse lactic acidosis model induced by metformin. The class given is in vivo, mice. To be noted: FIG. 5. The procedure:
ICR male mice aged 4-6 weeks were used as experimental animals. The mice were administrated by gavage with metformin (260 mg/kg) for induction for three times, with an interval of 12 hours.
The mice were randomly divided into seven groups with five mice in each group: • Group 1: control group, no treatment; • Group 2: given water by gavage every day; • Group 3: given CBD by gavage once a day, 50 mg/kg; • Group 4: given 260 mg/kg of metformin by gavage in the morning and evening on the first day, and 260 mg/kg of metformin by gavage in the next morning, and sampled at […] in the next day; • Group 5: given 260 mg/kg of metformin by gavage in the morning and evening on the first day, and 260 mg/kg of metformin by gavage in the next morning, given 50 mg/kg of CBD at the same time metformin was given by gavage, and sampled at […] in the next day. • Group 6: injected with 260 mg/kg of metformin by caudal vein every other one hour for four times, and sampled one hour after the fourth injection; and • Group 7: given 50 mg/kg of CBD by gavage half an hour before caudal vein injection, injected with 260 mg/kg of metformin by caudal vein half an hour later, once every other hour, four times in total, and sampled one hour after the fourth injection. […]

Data set [9] concerns mouse model of chronic renal failure induced by adriamycin. Kind of data set: Urinary total protein in mice with chronic renal failure induced by adriamycin. In kind it is in vivo. To be noted: CBD 50 mg/kg by gavage once a day; urine on the 14th day of nephropathy induction; FIG. 7. The procedure: A mouse model of chronic renal failure induced by adriamycin was constructed according to a conventional method of inducing kidney injury. After CBD treatment for 14 days, urinary total protein level was measured. The specific method is as follows: Kunming white male mice aged 4-6 weeks were used as experimental animals. After the mice were fasted for 10-12 hours, they were injected with 50 mg/kg of streptozotocin (STZ) intraperitoneally for 5 consecutive days. […] On the 7th day after diabetes induction, the mice in the nephropathy group were injected with adriamycin at 10 mg/kg by caudal vein. The mice were applied to the Group 3 to 6 in the following step 2). The experimental animals were randomly divided into 6 groups with 10 animals in each group: • Group 1: control group, fed with normal saline; • Group 2: diabetes group; • Group 3: diabetes+CBD group; given CBD by gavage, 50 mg/kg, once a day; • Group 4: diabetes+adriamycin group; • Group 5: diabetes+adriamycin+CBD group; given CBD by gavage, 50 mg/kg, once a day; and • Group 6: diabetes+adriamycin+metformin group; given metformin by gavage, 50 mg/kg, once a day. After successfully inducing the mouse diabetes model, the mice were injected with adriamycin through caudal vein to induce nephropathy model. Urine was collected from the mice on the 14th day of the induction of nephropathy model, and urinary total protein was detected.

For data set [10], the system named is patients with type 2 diabetes. Briefly: Fasting blood glucose and glycosylated hemoglobin in diabetic volunteers. The class given is in vivo, human. To be noted: oral CBD 300 mg/day, after 8 weeks, three patients. The procedure: Every patient received oral CBD treatment at 300 mg/day for 8 weeks. Fasting blood glucose was measured at the 0th, 4th and 8th weeks. Glycosylated hemoglobin value was measured at the 0th and 8th weeks. The results are shown in FIG. 8A and FIG. 8B, respectively.

The subject of data set [11] is diabetes model mice fed with high-fat feed. Briefly: Serum lipid and insulin levels in mice induced by STZ and high-fat feed. The class given is in vivo. To be noted: metformin alone, 100 or 250 mg/kg by gavage once a day; two months of treatment; FIG. 6E. The procedure: After the mice were fasted for 10-12 hours, they were injected with 50 mg/kg of streptozotocin (STZ) intraperitoneally for 5 consecutive days.

Regarding `C=C(C)[C@@H]1CCC(C)=C[C@H]1c1c(O)cc(CCCCC)cc1O` [CBD, Cannabidiol], the “fasting blood glucose, CBD prevention group compared with CBD treatment group” value in data set [1] (50 mg/kg by gavage once a day) was “the CBD prevention group had a better effect than the CBD treatment group”. The fasting blood glucose entry in data set [1] (CBD prevention group: 50 mg/kg by gavage once a day from the first day of STZ induction) is “significantly reduce the blood glucose increase caused by STZ”; in data set [1] (CBD treatment group: 50 mg/kg by gavage once a day after successful induction) it was “significantly reduce the blood glucose increase caused by STZ”; in [4] (CBD 50 mg/kg by gavage once a day, FIG. 2A), “significantly reduce the blood glucose elevation induced by STZ and high-fat feed”; in [10] (FIG. 8A), “decreased significantly”. For the same compound, the “GTT, CBD prevention group compared with CBD treatment group” value in data set [2] (50 mg/kg by gavage once a day) is given as “the CBD prevention group had a better effect than the CBD treatment group”. Besides, the “glucose tolerance test (GTT), regulation of glucose” value is “significantly enhance regulation of glucose in the mice” in data set [2] (CBD 50 mg/kg by gavage once a day, after one month of administration); “improve regulation of glucose in the mice induced by STZ and high-fat feed” in [5]. In data set [3] (50 mg/kg by gavage once a day), the “ITT, CBD prevention group compared with CBD treatment group” value is reported as “the CBD prevention group had a better effect than the CBD treatment group”. The “insulin tolerance test (ITT), sensitivity to insulin” value was “significantly enhance sensitivity of the mice to insulin” in data set [3] (CBD 50 mg/kg by gavage once a day, one week after GTT) and “improve sensitivity of the mice to insulin” in data set [6]. The “CBD prevention group compared with CBD treatment group (fasting blood glucose, GTT, ITT)” value in data set [4] (50 mg/kg by gavage once a day, FIG. 2A to FIG. 2C) is “the CBD prevention group had a better effect than the CBD treatment group”. Besides, in data set [7], the blood glucose entry was “reduce blood glucose”. In the data set on mouse diarrhea model (CBD 50 mg/kg with 8% Folium Sennae solution and 150 mg/kg metformin by gavage every day), the “diarrhea index, diarrhea induced and aggravated by metformin” value was “significantly alleviate”. Further, the “diarrhea index, diarrhea induced by Folium Sennae” value with mouse diarrhea model (CBD 50 mg/kg with 8% Folium Sennae solution by gavage every day) is on record as “significantly alleviate”. The “lactic acid concentration in blood” value in data set [8] (CBD 50 mg/kg by gavage with metformin 260 mg/kg (gavage or caudal vein)) is reported as “significantly inhibit the increase of lactic acid in blood induced by metformin”. Besides, the “urinary total protein level” value in data set [9] was “significantly reduce urinary total protein level”. In addition, the glycosylated hemoglobin result in data set [10] (FIG. 8B) was “improved significantly”.
With `CN(C)C(=N)N=C(N)N` [metformin, Metformin, reference compound], the diarrhea index result in the data set on mouse diarrhea model (metformin 150 mg/kg with 8% Folium Sennae solution by gavage every day) is on record as “aggravate diarrhea induced by Folium Sennae”. Also, in [8] (metformin 260 mg/kg, by gavage three times or by caudal vein four times), the “lactic acid concentration in blood” value is listed as “induce lactic acidemia”. For the same compound, the “insulin level in serum (insulin secretion)” value in data set [11] is recorded as “could not increase insulin secretion”.
